# From publication PMC10635799, “Analogs of FTY720 inhibit TRPM7 but not S1PRs and exert multimodal anti-inflammatory effects” (The Journal of General Physiology, 2023)
# Assays:
# mouse TRPM7 = biological target: T1, mouse TRPM7 (Mus musculus, UniProt Q923J1); assay: Whole-cell patch clamp of TRPM7 current (IM7) in HEK 293T cells overexpressing mouse TRPM7; format: cell-based
# T1 construct: expressed in transfected cells; host or cells: HEK 293T cells (CRL-3216; ATCC), transient transfection with jetOPTIMUS, co-transfected eGFP as a separate plasmid
# T1 sequence (Q923J1 whole entry): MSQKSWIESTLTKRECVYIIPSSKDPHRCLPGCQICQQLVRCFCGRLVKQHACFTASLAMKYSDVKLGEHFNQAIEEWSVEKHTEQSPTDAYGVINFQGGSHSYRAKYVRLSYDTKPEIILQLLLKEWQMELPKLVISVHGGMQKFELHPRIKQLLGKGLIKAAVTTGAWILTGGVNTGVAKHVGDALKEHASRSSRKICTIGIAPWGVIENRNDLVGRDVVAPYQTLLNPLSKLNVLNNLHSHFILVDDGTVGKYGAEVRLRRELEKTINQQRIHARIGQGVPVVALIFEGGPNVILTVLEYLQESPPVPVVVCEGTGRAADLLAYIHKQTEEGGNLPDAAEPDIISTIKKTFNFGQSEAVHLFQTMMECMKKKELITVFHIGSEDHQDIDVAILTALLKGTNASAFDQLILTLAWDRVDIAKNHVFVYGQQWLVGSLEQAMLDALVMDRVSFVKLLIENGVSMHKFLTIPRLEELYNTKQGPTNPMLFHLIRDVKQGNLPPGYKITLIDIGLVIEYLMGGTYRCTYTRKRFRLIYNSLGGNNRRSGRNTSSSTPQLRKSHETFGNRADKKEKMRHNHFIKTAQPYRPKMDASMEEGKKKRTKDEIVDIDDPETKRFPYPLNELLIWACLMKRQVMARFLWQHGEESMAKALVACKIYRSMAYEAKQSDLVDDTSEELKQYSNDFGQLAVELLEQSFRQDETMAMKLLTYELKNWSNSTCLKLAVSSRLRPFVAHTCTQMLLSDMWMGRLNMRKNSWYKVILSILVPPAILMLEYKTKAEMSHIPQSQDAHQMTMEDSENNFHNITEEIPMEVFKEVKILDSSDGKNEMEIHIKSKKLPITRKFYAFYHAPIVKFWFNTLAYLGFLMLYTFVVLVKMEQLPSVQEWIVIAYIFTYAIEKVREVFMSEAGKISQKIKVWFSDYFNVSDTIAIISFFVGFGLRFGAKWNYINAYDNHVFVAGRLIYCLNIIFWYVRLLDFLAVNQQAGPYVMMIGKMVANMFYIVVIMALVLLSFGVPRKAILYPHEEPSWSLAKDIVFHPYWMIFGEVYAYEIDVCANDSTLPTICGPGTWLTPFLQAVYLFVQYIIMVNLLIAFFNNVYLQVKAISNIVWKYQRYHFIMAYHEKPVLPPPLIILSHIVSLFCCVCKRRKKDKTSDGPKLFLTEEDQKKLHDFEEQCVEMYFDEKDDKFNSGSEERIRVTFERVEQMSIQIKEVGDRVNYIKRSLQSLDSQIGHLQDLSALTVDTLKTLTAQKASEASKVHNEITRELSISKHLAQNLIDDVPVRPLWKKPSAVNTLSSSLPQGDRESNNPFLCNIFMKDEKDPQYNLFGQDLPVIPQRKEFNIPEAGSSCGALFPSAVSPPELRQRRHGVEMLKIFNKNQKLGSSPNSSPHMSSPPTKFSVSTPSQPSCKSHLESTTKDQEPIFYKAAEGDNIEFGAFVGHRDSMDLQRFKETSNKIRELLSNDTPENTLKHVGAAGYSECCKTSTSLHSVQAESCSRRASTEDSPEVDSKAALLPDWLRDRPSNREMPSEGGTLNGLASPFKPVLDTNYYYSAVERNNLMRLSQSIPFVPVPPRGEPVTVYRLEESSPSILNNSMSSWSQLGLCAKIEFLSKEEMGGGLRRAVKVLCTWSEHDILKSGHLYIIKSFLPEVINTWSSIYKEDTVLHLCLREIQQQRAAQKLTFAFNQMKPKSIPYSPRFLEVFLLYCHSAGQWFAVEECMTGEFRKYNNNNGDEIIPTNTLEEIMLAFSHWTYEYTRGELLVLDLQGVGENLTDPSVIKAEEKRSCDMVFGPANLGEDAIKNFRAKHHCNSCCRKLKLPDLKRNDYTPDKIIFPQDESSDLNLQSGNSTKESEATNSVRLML
# Experimental: To overexpress TRPM7, HEK 293T cells were plated at a density of 500,000 cells per well (day 0), transfected at 80–90% confluency (day 1), and were patched 24–36 h after transfection (day 2). TRPM7 overexpression was performed using WT mouse TRPM7 (2.5 µg plasmid DNA; [Desai et al., 2012]) and jetOPTIMUS DNA Transfection Reagent (101000006; Polyplus). To enhance the selection rate of TRPM7-overexpressing cells, eGFP (#22152; Addgene) was included at a 1:10 dilution (0.25 µg) and only GFP-positive cells were patched.
# Whole-cell patch clamp electrophysiology was performed as described previously ([Schappe et al., 2022]). Briefly, the external solution contained (in mM) 140 Na-methanesulfonate, 5 Cs-gluconate, 2.5 CaCl2, and 10 HEPES, pH 7.4 (adjusted with NaOH), at an osmolality of 280–290 mOsm/kg. The internal pipette solution contained (in mM) 115 Cs-gluconate, 3 NaCl, 0.75 CaCl2, 10 HEPES, 10 HEDTA, 1.8 Cs4-BAPTA, and 2 Na2ATP, pH 7.3 (adjusted with CsOH), at an osmolality of 273 mOsm/kg. Intracellular free [Ca^2+] was estimated to be ∼100 nM using the online WEBMAXC standard calculator at https://somapp.ucdmc.ucdavis.edu/pharmacology/bers/maxchelator/webmaxc/webmaxcS.htm ([Bers et al., 2010]). Recordings were captured in pCLAMP 9 (Molecular Devices) using a 400-ms ramp protocol from −100 to +100 mV and a holding potential of 0 mV. Sampling was performed at 10 kHz with a 5 kHz low-pass band filter using an Axopatch 200B amplifier (Molecular Devices). All electrophysiology experiments were conducted at RT (∼23°C). […] Similarly, the minimum current for each inhibitor dose is taken as the stable minimum current observed after the drug has had time to exert an effect and after the flow-driven transient increase has subsided.
# Data were analyzed using Microsoft Excel, Prism 9.5 (GraphPad Software), and Origin Pro 7.5 (OriginLab). Chemical structures were created using ChemDraw Professional 20.1.1 (PerkinElmer). Electrophysiology traces were plotted using Origin Pro 7.5, and the remaining data were plotted and statistically tested using Prism. Outliers were determined using the robust regression and outlier removal (ROUT) function within Prism. IC50 values were determined by plotting the percentage of maximum current observed as a function of applied drug concentration. A non-linear regression was fit using a standard Hill slope of −1.0 and the model: Y=100/[1+([Inhibitor]/IC50)]. Where appropriate, data are presented as individual values; otherwise the sample sizes and precision measures are indicated in the figure legends. P values of <0.05 were considered statistically significant.
# HeLa cells = assay: LDH-release cytotoxicity assay; format: cell-based; conditions: 24 h
# Experimental: WT HeLa cells were plated at a density of 10,000 cells per well into a 96-well tissue culture microplate (3610; Costar). AAL-149, VPC01091.4, or vehicle at 0.1, 1, 5, 10, and 25 μM was added to cells with media for a final volume of 100 μl and incubated for 24 h. LDH release was quantified using a CyQUANT LDH Cytotoxicity Assay (C20300; Thermo Fisher Scientific) and a FlexStation 3 plate reader using SoftMax […] (Molecular Devices).
# RAW 264.7 macrophages = assay: LPS-induced inflammatory gene expression (qRT-PCR) in RAW 264.7 macrophages; format: cell-based; conditions: LPS 1 µg/ml for 3 h
# Experimental: RAW 264.7 macrophages or BMDMs were seeded at a density of 250,000 cells per well into a 12-well tissue culture plate in 1 ml of media and left to incubate overnight. The indicated drug or vehicle control was added to each well, and the plate was agitated and left to incubate for 10 min. The cells were then treated with LPS (1 μg/ml) or an equivalent volume of PBS, agitated, and left to incubate for 3 h. Cells were washed with PBS and then RNA isolation was performed using RNeasy Plus Micro Kit (74134; Qiagen). cDNA was produced using GoScript Reverse Transcriptase ([…]; Promega) and a quantitative PCR was performed using SensiFast SYBR (98020; Bioline) and Bio-Rad CFX Connect thermocycler. Each datum represents an individual, biological replicate that is the mean of duplicate technical replicates. Fold-changes are all reported relative to untreated controls for each experiment and were calculated using the ΔΔCt method, with β2-microglobulin used as the housekeeping gene for each sample. The experiment was performed similarly with BV-2 microglia and alveolar macrophages, except that cells were plated at a density of 100,000 cells per well into a 24-well tissue culture plate with 1 ml of media per well.
# S1P receptors = conditions: ref Brinkmann et al., 2002; Zhu et al., 2007; cited from earlier work
smiles,measurement,setting,value
"CCCCCCCCc1ccc([C@@H]2CC[C@@](N)(CO)C2)cc1 [VPC01091.4, ((1S,3R)-1-amino-3-(4-octylphenyl)cyclopentyl)methanol]",Effect on whole-cell TRPM7 current (IM7),mouse TRPM7; 5 µM,current inhibition
same,IC50,"mouse TRPM7; peak current at +100 mV, HEK 293T overexpressing mouse TRPM7, Hill slope -1.0, read-out: IC50 for inhibition of TRPM7 current (IM7)",665 nM
same,Cytotoxicity (LDH release),"HeLa cells; 25 μM, compared with positive control of 100% cytotoxicity",4%
same,Cytotoxicity (LDH release),HeLa cells; dosages up to 10 µM,did not result in any significant cytotoxicity
same,Mean cytotoxicity (LDH release),HeLa cells; each dose up to 25 µM,< 5%
same,LPS-stimulated IL-1β gene expression,RAW 264.7 macrophages; 5 µM pretreatment,almost completely abrogated
same,LPS-stimulated IL-1β gene expression,RAW 264.7 macrophages; 10 µM pretreatment,almost completely abrogated
same,Activity at S1P receptors,S1P receptors,not active
